This note sets out measurements from patent US8629102B2, “3-hydroxyisothiazole 1-oxide derivatives” (Mochida Pharmaceutical Co., Ltd., priority 2011, dated 2014).

The term EC50 denotes the concentration giving half of the maximal effect.

T1 sequence (O14842 whole entry): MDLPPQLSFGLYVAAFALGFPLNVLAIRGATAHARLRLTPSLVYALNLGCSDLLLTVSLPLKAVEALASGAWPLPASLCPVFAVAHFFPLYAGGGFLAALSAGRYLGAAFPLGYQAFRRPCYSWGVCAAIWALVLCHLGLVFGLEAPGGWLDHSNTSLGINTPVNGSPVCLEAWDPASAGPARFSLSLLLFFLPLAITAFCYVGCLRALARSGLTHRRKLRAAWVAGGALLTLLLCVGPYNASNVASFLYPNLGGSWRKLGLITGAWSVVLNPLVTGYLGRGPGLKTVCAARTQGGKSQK

This assay addresses T1, GPR40 of human origin (Homo sapiens, UniProt O14842).
T1 construct: expressed in transfected cells
Description: Agonist action on GPR40 of human origin (intracellular Ca2+ change). The class given is cell-based. As to conditions: CHO cell strain stably expressing GPR40 of human origin; change in Ca2+ concentration, fluorescent calcium indicator. As for the experimental part: Pharmacological Test Example 1: Agonist Action on GPR40 of Human Origin
A CHO cell strain stably expressing GPR40 of human origin was used to determine the agonist action of a subject compound. This cell strain was seeded in a clear bottom 96 well plate at 4×10^4 cells/100 pt/well. The cell strain iswas cultured in a CO2 incubator overnight using a Ham's F-12 medium containing a 10% fetal bovine serum, 100 U/mL penicillin, 0.1 mg/mL streptomycin, and 400 μg/mL Geneticin. Calcium 4 Assay Kit (Molecular Devices) was used as a fluorescent calcium indicator. One mL of 77 mg/mL probenecid (Invitrogen) was added to 100 mL of a calcium indicator solution to prepare a solution (loading solution) mixed with a 20 mM HEPES-containing Hanks' balanced salt solution (HBSS) in equal proportions. To the cells from which the culture solution is removed, 200 μl of the loading solution was added, and the cells were cultured in a CO2 incubator for 1 hour. The subject compound was diluted with a 20 mM HEPES-containing HBSS and was added to the cells by 50 μL, and the change in the Ca^2+ concentration was measured with an intracellular ion analyzer. The EC50 value of the subject compound was calculated using the dose-response curve of fluorescence intensity variation.
Take `[O-][s+]1nc(O)cc1-c1ccc(O[C@@H]2CCc3c(Br)cccc32)cc1` (single isomer, unassigned) [Example 3]: the EC50 was under 300 nM.

`Cc1ccc(Cl)c(-c2cccc3c2CC[C@H]3Oc2ccc(-c3cc(O)n[s+]3[O-])cc2)c1` (single isomer, unassigned) [Example 15]: the EC50 is under 300 nM.

As to `CC(C)c1ccc(-c2cccc3c2CC[C@H]3Oc2ccc(-c3cc(O)n[s+]3[O-])cc2)cc1` (single isomer, unassigned) [Example 26], the EC50 is 300 to 3000 nM.

As for `[O-][s+]1nc(O)cc1-c1ccc(O[C@@H]2CCc3c(-c4cccc5ccccc45)cccc32)cc1` (single isomer, unassigned) [Example 35], the EC50 was under 300 nM.

As for `[O-][s+]1nc(O)cc1-c1ccc(O[C@@H]2CCc3c(-c4cccnc4Cl)cccc32)cc1` (single isomer, unassigned) [Example 75], the EC50 was under 300 nM.

Consider `[O-][s+]1nc(O)cc1-c1ccc(O[C@@H]2CCc3c(-c4cccc5c4oc4ccccc45)cccc32)cc1` (single isomer, unassigned) [Example 80], for which the EC50 is under 300 nM.

For the compound `N#Cc1ccc(Oc2cccc3c2CC[C@H]3Oc2ccc(-c3cc(O)n[s+]3[O-])cc2)cc1` (single isomer, unassigned) [Example 83], the EC50 is under 300 nM.

On to `[O-][s+]1nc(O)cc1-c1ccc(O[C@@H]2CCc3c(Oc4cccnc4)cccc32)cc1` (single isomer, unassigned) [Example 85], for which the EC50 was under 300 nM.

As to `N#Cc1ccc(Oc2cccc3c2OCC3Oc2ccc(-c3cc(O)n[s+]3[O-])cc2)cc1` (single isomer, unassigned) [Example 144-a, 4-((3-(4-(3-hydroxy-1-oxidoisothiazol-5-yl)phenoxy)-2,3-dihydrobenzofuran-7-yl)oxy)benzonitrile], the EC50 was under 300 nM.

Take `N#Cc1ccc(Oc2cccc3c2OCC3Oc2ccc(-c3cc(O)n[s+]3[O-])cc2)cc1` (single isomer, unassigned) [Example 144-b, 4-((3-(4-(3-hydroxy-1-oxidoisothiazol-5-yl)phenoxy)-2,3-dihydrobenzofuran-7-yl)oxy)benzonitrile]: the EC50 fell in the range of 300 to 3000 nM.

On to `[O-][s+]1nc(O)cc1-c1ccc(OC2COc3c(Oc4ccccc4)cccc32)cc1` (single isomer, unassigned) [Example 145-a, 3-hydroxy-5-(4-((7-phenoxy-2,3-dihydrobenzofuran-3-yl)oxy)phenyl)isothiazole 1-oxide], for which the EC50 was under 300 nM.

For `[O-][s+]1nc(O)cc1-c1ccc(OC2COc3c(Oc4ccccc4)cccc32)cc1` (single isomer, unassigned) [Example 145-b, 3-hydroxy-5-(4-((7-phenoxy-2,3-dihydrobenzofuran-3-yl)oxy)phenyl)isothiazole 1-oxide], the EC50 fell in the range of 300 to 3000 nM.

In the case of `Cc1cc(OCCC(C)(C)O)cc(C)c1-c1cccc2c1OCC2Oc1ccc(-c2cc(O)n[s+]2[O-])cc1` (single isomer, unassigned) [Example 148-a, 3-hydroxy-5-(4-((7-(4-(3-hydroxy-3-methylbutoxy)-2,6-dimethylphenyl)-2,3-dihydrobenzofuran-3-yl)oxy)phenyl)isothiazole 1-oxide], the EC50 was under 300 nM.

With `Cc1cc(OCCC(C)(C)O)cc(C)c1-c1cccc2c1OCC2Oc1ccc(-c2cc(O)n[s+]2[O-])cc1` (single isomer, unassigned) [Example 148-b, 3-hydroxy-5-(4-((7-(4-(3-hydroxy-3-methylbutoxy)-2,6-dimethylphenyl)-2,3-dihydrobenzofuran-3-yl)oxy)phenyl)isothiazole 1-oxide], the EC50 fell in the range of 300 to 3000 nM.

Regarding `[O-][s+]1nc(O)cc1-c1ccc(OC2COc3c(Br)cccc32)cc1` (single isomer, unassigned) [Example 150, 5-(4-((7-bromo-2,3-dihydrobenzofuran-3-yl)oxy)phenyl)-3-hydroxyisothiazole 1-oxide], the EC50 was under 300 nM.

With `Cc1cc(OCCCS(C)(=O)=O)cc(C)c1-c1cccc2c1OCC2Oc1ccc(-c2cc(O)n[s+]2[O-])cc1` (single isomer, unassigned) [Example 151, 5-(4-((7-(2,6-dimethyl-4-(3-(methylsulfonyl)propoxy)phenyl)-2,3-dihydrobenzofuran-3-yl)oxy)phenyl)-3-hydroxyisothiazole 1-oxide], the EC50 was under 300 nM.

Consider `COc1ccc(Oc2cccc3c2OCC3Oc2ccc(-c3cc(O)n[s+]3[O-])cc2)cn1` (single isomer, unassigned) [Example 152-a, 3-hydroxy-5-(4-((7-((6-methoxypyridin-3-yl)oxy)-2,3-dihydrobenzofuran-3-yl)oxy)phenyl)isothiazole 1-oxide], for which the EC50 is under 300 nM.

On to `Cc1nc(OCCC(C)(C)O)ccc1Oc1cccc2c1OCC2Oc1ccc(-c2cc(O)n[s+]2[O-])cc1` (single isomer, unassigned) [Example 153-a, 3-hydroxy-5-(4-((7-((6-(3-hydroxy-3-methylbutoxy)-2-methylpyridin-3-yl)oxy)-2,3-dihydrobenzofuran-3-yl)oxy)phenyl)isothiazole 1-oxide], for which the EC50 is under 300 nM.

In the case of `Cc1nc(OCCC(C)(C)O)ccc1-c1cccc2c1OCC2Oc1ccc(-c2cc(O)n[s+]2[O-])cc1` (single isomer, unassigned) [Example 154-a, 3-hydroxy-5-(4-((7-(6-(3-hydroxy-3-methylbutoxy)-2-methylpyridin-3-yl)-2,3-dihydrobenzofuran-3-yl)oxy)phenyl)isothiazole 1-oxide], the EC50 is under 300 nM.

`[O-][s+]1nc(O)cc1-c1ccc(OCc2ccc(Oc3ccccc3)cc2)cc1` (single isomer, unassigned) [Example 160, 3-hydroxy-5-(4-((4-phenoxybenzyl)oxy)phenyl)isothiazole 1-oxide]: the EC50 is under 300 nM.

Take `[O-][s+]1nc(O)cc1-c1ccc(OC2CCc3cc(Br)ccc32)cc1` (centres unmarked) [Example 1, 5-(4-((5-bromo-2,3-dihydro-1H-inden-1-yl)oxy)phenyl)-3-hydroxyisothiazole 1-oxide]: the EC50 is under 300 nM.

For the compound `Cc1cc(OCCCS(C)(=O)=O)cc(C)c1-c1cccc(CNc2ccc(-c3cc(O)n[s+]3[O-])cc2)c1` (centres unmarked) [Example 2, 5-(4-(((2′,6′-dimethyl-4′-(3-(methylsulfonyl)propoxy)-[1,1′-biphenyl]-3-yl)methyl)amino)phenyl)-3-hydroxyisothiazole 1-oxide], the EC50 was under 300 nM.

Regarding `CCOc1ccc(F)cc1-c1cccc2c1CC[C@H]2Oc1ccc(-c2cc(O)n[s+]2[O-])cc1` (stereo partly drawn) [Example 4, 5-(4-(((1R)-4-(2-ethoxy-5-fluorophenyl)-2,3-dihydro-1H-inden-1-yl)oxy)phenyl)-3-hydroxyisothiazole 1-oxide], the EC50 was under 300 nM.

As to `Cc1ccc(-c2cccc3c2CC[C@H]3Oc2ccc(-c3cc(O)n[s+]3[O-])cc2)cc1` (stereo partly drawn) [Example 5, 3-hydroxy-5-(4-(((1R)-4-(p-tolyl)-2,3-dihydro-1H-inden-1-yl)oxy)phenyl)isothiazole 1-oxide], the EC50 was under 300 nM.

As to `[O-][s+]1nc(O)cc1-c1ccc(O[C@@H]2CCc3c(-c4ccc(Cl)cc4)cccc32)cc1` (stereo partly drawn) [Example 6, 5-(4-(((R)-4-(4-chlorophenyl)-2,3-dihydro-1H-inden-1-yl)oxy)phenyl)-3-hydroxyisothiazole 1-oxide], the EC50 was in the range of 300 to 3000 nM.

`CCOc1ccc(-c2cccc3c2CC[C@H]3Oc2ccc(-c3cc(O)n[s+]3[O-])cc2)cc1` (stereo partly drawn) [Example 7, 5-(4-(((R)-4-(4-ethoxyphenyl)-2,3-dihydro-1H-inden-1-yl)oxy)phenyl)-3-hydroxyisothiazole 1-oxide]: the EC50 fell in the range of 300 to 3000 nM.

In the case of `[O-][s+]1nc(O)cc1-c1ccc(O[C@@H]2CCc3c(-c4cccc(Cl)c4)cccc32)cc1` (stereo partly drawn) [Example 8, 5-(4-(((R)-4-(3-chlorophenyl)-2,3-dihydro-1H-inden-1-yl)oxy)phenyl)-3-hydroxyisothiazole 1-oxide], the EC50 is under 300 nM.

In the case of `CCc1ccccc1-c1cccc2c1CC[C@H]2Oc1ccc(-c2cc(O)n[s+]2[O-])cc1` (stereo partly drawn) [Example 9, 5-(4-(((R)-4-(2-ethylphenyl)-2,3-dihydro-1H-inden-1-yl)oxy)phenyl)-3-hydroxyisothiazole 1-oxide], the EC50 is under 300 nM.

Take `[O-][s+]1nc(O)cc1-c1ccc(O[C@@H]2CCc3c(-c4ccccc4Cl)cccc32)cc1` (stereo partly drawn) [Example 10, 5-(4-(((R)-4-(2-chlorophenyl)-2,3-dihydro-1H-inden-1-yl)oxy)phenyl)-3-hydroxyisothiazole 1-oxide]: the EC50 was under 300 nM.

On to `[O-][s+]1nc(O)cc1-c1ccc(O[C@@H]2CCc3c(-c4ccccc4F)cccc32)cc1` (stereo partly drawn) [Example 11, 5-(4-(((R)-4-(2-fluorophenyl)-2,3-dihydro-1H-inden-1-yl)oxy)phenyl)-3-hydroxyisothiazole 1-oxide], for which the EC50 is under 300 nM.

Regarding `[O-][s+]1nc(O)cc1-c1ccc(O[C@@H]2CCc3c(-c4cc(F)cc(F)c4)cccc32)cc1` (stereo partly drawn) [Example 12, 5-(4-(((R)-4-(3,5-difluorophenyl)-2,3-dihydro-1H-inden-1-yl)oxy)phenyl)-3-hydroxyisothiazole 1-oxide], the EC50 is under 300 nM.

With `Cc1ccc(-c2cccc3c2CC[C@H]3Oc2ccc(-c3cc(O)n[s+]3[O-])cc2)cc1F` (stereo partly drawn) [Example 13, 5-(4-(((R)-4-(3-fluoro-4-methylphenyl)-2,3-dihydro-1H-inden-1-yl)oxy)phenyl)-3-hydroxyisothiazole 1-oxide], the EC50 was under 300 nM.
